Laboratory results from ChEMBL document CHEMBL5370683, “Peptide-to-Small Molecule: Discovery of Non-Covalent, Active-Site Inhibitors of β-Herpesvirus Proteases” (ACS Med Chem Lett, 2023).
pEC50, pIC50: −log10 of the molar value. Peptide text beside a SMILES is read from it.

Columns and labels:
[1] = Inhibition of N-terminal 6 His-tagged HHV6 protease (2 to 230 residues) expressed in Escherichia coli BL21 cells using 5FAM-KPSILNASLTPETVKK as peptide substrate incubated for 3 hrs by fluorescence based analysis; parameters: species or system Human betaherpesvirus 6
[2] = Inhibition of amino terminal GST tagged HCMV protease (1 to 256 residues) expressed in Escherichia coli BL21 (DE3) cells using 5-carboxyfluorescein [FAM]-RGVVNASSRLAK as peptide substrate incubated for 3 hrs by fluorescence based analysis; parameters: species or system Human betaherpesvirus 5
Human betaherpesvirus 5 [3] = test: Antiviral activity against HCMV infected in HFF cells assessed as reduction in viral replication; type: functional, organism-based; conditions: Human betaherpesvirus 5, HFF
[4] = Cytotoxicity against HFF cells assessed as inhibition in cell viability incubated for 5 days by luminescence based analysis; type: toxicity; conditions: human, time 5 day
Human betaherpesvirus 5 [5] = test: Inhibition of amino terminal GST tagged HCMV protease (1 to 256 residues) expressed in Escherichia coli BL21 (DE3) cells using 5-carboxyfluorescein [FAM]-RGVVNASSRLAK as peptide substrate at 99 uM incubated for 3 hrs by fluorescence based analysis relative to control
Human betaherpesvirus 6 = test: Inhibition of N-terminal 6 His-tagged HHV6 protease (2 to 230 residues) expressed in Escherichia coli BL21 cells using 5FAM-KPSILNASLTPETVKK as peptide substrate at 99 uM incubated for 3 hrs by fluorescence based analysis relative to control
[6] = Inhibition of amino terminal GST tagged HCMV protease Y6A mutant (1 to 256 residues) expressed in Escherichia coli BL21 (DE3) cells using 5-carboxyfluorescein [FAM]-RGVVNASSRLAK as peptide substrate incubated for 3 hrs by fluorescence based analysis; parameters: species or system Human betaherpesvirus 5
[7] = Inhibition of N-terminal 6 His-tagged HHV6 protease Y6A mutant (2 to 230 residues) expressed in Escherichia coli BL21 cells using 5FAM-KPSILNASLTPETVKK as peptide substrate incubated for 3 hrs by fluorescence based analysis; parameters: species or system Human betaherpesvirus 6
[8] = Inhibition of amino terminal GST tagged HCMV protease F1A mutant (1 to 256 residues) expressed in Escherichia coli BL21 (DE3) cells using 5-carboxyfluorescein [FAM]-RGVVNASSRLAK as peptide substrate incubated for 3 hrs by fluorescence based analysis; parameters: species or system Human betaherpesvirus 5
[9] = Inhibition of N-terminal 6 His-tagged HHV6 protease F1A mutant (2 to 230 residues) expressed in Escherichia coli BL21 cells using 5FAM-KPSILNASLTPETVKK as peptide substrate incubated for 3 hrs by fluorescence based analysis; parameters: species or system Human betaherpesvirus 6

| Compound | pIC50 [1] | pIC50 [2] | inhibition (Human betaherpesvirus 5 [5]) | also measured |
| --- | --- | --- | --- | --- |
| CC[C@H](C)[C@H](NC(=O)[C@H](Cc1ccccc1)NC(C)=O)C(=O)N[C@H](C(=O)NCC(=O)N[C@@H](Cc1c[nH]cn1)C(=O)N[C@@H](Cc1ccc(O)cc1)C(=O)N[C@@H](Cc1c[nH]c2ccccc12)C(=O)N[C@H](C(=O)N[C@@H](CCCNC(=N)N)C(=O)N[C@@H](Cc1ccccc1)C(=O)N[C@@H](CC(C)C)C(=O)N1CCC[C@H]1C(=O)N[C@@H](CS)C(=O)NCC(N)=O)C(C)C)[C@@H](C)O (Ac-FITGHYWVRFLPCG-NH2) | > 7.12 | > 7.12 |  |  |
| CN1C(=O)N(c2cccn([C@@H](c3ccccc3)c3cn(C4CCCC4)nc3-c3ccccc3)c2=O)C[C@@H]1C(=O)Nc1ccc[nH]c1=O | 4.74 | < 4.00 | 32% | pEC50 (Human betaherpesvirus 5 [3]): 4.42; CC50 at 120 h [4]: 53 µM |
| CN1C(=O)N(c2cccn([C@H](c3ccccc3)c3cn(C4CCCC4)nc3-c3ccccc3)c2=O)C[C@@H]1C(=O)Nc1ccc[nH]c1=O | < 4.00 | < 4.00 | 2% | pEC50 (Human betaherpesvirus 5 [3]): 4.05; CC50 at 120 h [4]: 89 µM; inhibition (Human betaherpesvirus 6): 12% |
| CC[C@H](C)[C@H](NC(=O)[C@H](Cc1ccccc1)NC(C)=O)C(=O)N[C@H](C(=O)NCC(=O)N[C@@H](Cc1c[nH]cn1)C(=O)N[C@@H](C)C(=O)N[C@@H](Cc1c[nH]c2ccccc12)C(=O)N[C@H](C(=O)N[C@@H](CCCNC(=N)N)C(=O)N[C@@H](Cc1ccccc1)C(=O)N[C@@H](CC(C)C)C(=O)N1CCC[C@H]1C(=O)N[C@@H](CS)C(=O)NCC(N)=O)C(C)C)[C@@H](C)O (Ac-FITGHAWVRFLPCG-NH2) |  |  |  | pIC50 [6]: 6.16; pIC50 [7]: 7.07 |
| CC[C@H](C)[C@H](NC(=O)[C@H](C)NC(C)=O)C(=O)N[C@H](C(=O)NCC(=O)N[C@@H](Cc1c[nH]cn1)C(=O)N[C@@H](Cc1ccc(O)cc1)C(=O)N[C@@H](Cc1c[nH]c2ccccc12)C(=O)N[C@H](C(=O)N[C@@H](CCCNC(=N)N)C(=O)N[C@@H](Cc1ccccc1)C(=O)N[C@@H](CC(C)C)C(=O)N1CCC[C@H]1C(=O)N[C@@H](CS)C(=O)NCC(N)=O)C(C)C)[C@@H](C)O (Ac-AITGHYWVRFLPCG-NH2) |  |  |  | pIC50 [8]: 7.10; pIC50 [9]: 6.85 |

The next lines start with results.

| pIC50 [1] | pIC50 [2] | Compound | inhibition (Human betaherpesvirus 5 [5]) | also measured |
| --- | --- | --- | --- | --- |
| 4.30 | < 4.00 | Cc1ccc([C@H](c2cn(C3CCCC3)nc2-c2ccccc2C)n2cccc(N3C[C@H](C(=O)NC45CCC(CC4)NC5=O)N(C)C3=O)c2=O)cc1 | 39% |  |
| 4.57 | 4.82 | Cc1cccc(C(c2cn(C3CCCC3)nc2-c2ccccc2)n2cccc(N3C[C@H](C(=O)NC45CCC(CC4)NC5=O)N(C)C3=O)c2=O)c1 (mixture of isomers) |  |  |
| 4.62 | 4.52 | Cc1ccccc1C(c1cn(C2CCCC2)nc1-c1ccccc1)n1cccc(N2C[C@H](C(=O)NC34CCC(CC3)NC4=O)N(C)C2=O)c1=O (mixture of isomers) |  |  |
